{"source": "patent US20160263140A1", "about": "“USE OF COMPOUNDS ACTIVATING SIRT-3 FOR MIMICKING EXERCISE” (President and Fellows of Harvard College, priority 2007, published 2016)", "key": {"AMPK": {"test_system": "AMPK", "assay": "AMPK phosphorylation in C2C12 myotubes (Western blot)", "assay_type": "cell-based, murine", "conditions": "40 μM, 3-hour treatment; vector- and SIRT3-transfected C2C12 myotubes", "protocol": "(§1) C2C12 myocytes and BOSC23 cells were cultured in Dulbecco's modified Eagle's medium containing 10% bovine calf serum. For C2C12 differentiation, at confluence, cells were incubated in Dulbecco's modified Eagle's medium with 2% horse serum (Hyclone, Logan, Utah) for three days. Inhibition of AMPK in selected studies was achieved by adding compound C (6-[4-(2-Piperidin-1-yl-ethoxy)-phenyl)]-3-pyridin-4-yl-pyrrazolo[1,5-a]-pyrimidine, Merck) (31) to the media for 3 hours at a final concentration of 40 μM. […]"}, "GLUT4": {"test_system": "GLUT4", "assay": "GLUT4 protein expression in SIRT3-expressing C2C12 myotubes (Western blot)", "assay_type": "cell-based, murine", "conditions": "40 μM, 3-hour treatment", "protocol": "as §1"}, "HEK293 cells [1]": {"test_system": "HEK293 cells", "assay": "Total cellular NAD+ by HPLC-MALDI-MS after MMS", "assay_type": "cell-based, human", "conditions": "1.2 mM MMS, 2 and 4 h, irrespective of Nampt levels", "protocol": "(§2) HEK293 and HT1080 cells at less than 85% confluency were treated with MMS (1.2 mM) for 6-8.5 h and 8-17 h, respectively. Transiently transfected cells were washed 3 times with PBS to remove residual transfection reagents before treating with MMS. HEK293 cells and HT1080 cells were exposed to etoposide for 72 h or 46 h, at 120 or 40 μM, respectively. HT1080 cells were exposed to camptothecin at 14 μM for 23 h. After drug treatments, cells were harvested by trypsinization, pelleted by centrifugation and resuspended in PBS containing 3% FBS. Cell death was analyzed by FACS using propidium iodide (PI) staining. Cells transiently-transfected with mNAMPT/MSCV, SIRT1-7 siRNA, Nmnat-3, or hMFT siRNA oligos and co-transfected with FAM-labeled scrambled siRNA oligos, percent cell death was determined by as the proportion of PUGFP or PIFAM positive cells versus the total number of cells with green fluorescence.\nNAD^+ was determined by as described previously (Sauve and Schramm, 2003), with the following modifications. HEK293 or HT1080 cells were harvested by trypsinization and counted by haemocytometer. NAD^+ was extracted from whole cells or mitochondrial pellets by adding 10% perchloric acid and sonicating for 5 min on ice. […] The volume of mitochondrial pellets was calculated by considering the density of the mitochondria pellets to be 1.0 μL/mg. […]"}, "HEK293 cells [2]": {"test_system": "HEK293 cells", "assay": "Cell death assay after MMS treatment (FACS, propidium iodide)", "assay_type": "cell-based", "conditions": "for effect on Nampt-mediated cell protection/survival against MMS: HEK293 cells stably overexpressing Nampt, MMS treatment, sirtinol 100 μM", "protocol": "Human embryonic kidney (HEK293) and human fibrosarcoma HT1080 cell lines were obtained from ATCC and grown in complete DMEM medium with 10% FBS and 100 μg/ml penicillin/streptomycin. To generate Nampt overexpression or empty vector stable clones, hNAMPT/pcDNA or pcDNA empty vector were transfected into HEK293 or HT1080 cells and selected with 0.5-1.0 mg/ml geneticin. To generate Nampt knockdown cells, siRNA/NAMPT/pMSCV or pMSCV empty vector were transfected into HT1080 cells, and stable clones were selected with 500 ng/ml puromycin. Primary neonatal rat cardiomyocytes were prepared as described previously (Matsui et al., 1999). Isolated cardiomyocytes were grown in complete medium (RPMI 1640, 5% fetal calf serum, 10% horse serum) to 80% confluence before cells were subjected to hypoxia and/or serum starvation. For hypoxia, medium was changed to RPMI 1640 with or without serum saturated with 95% N2/5% CO2 and then cells were placed in a 37° C. airtight box saturated with 95% N2/5% CO2 for 18 hours. O2 concentrations were <0.1% (Ohmeda oxygen monitor, type 5120). To serum starve HT1080, cells were grown in DMEM medium containing no serum. Cells were harvested after 26 h of serum starvation and Nampt expression was analyzed by Western blotting.\nas §2"}, "[3]": {"test_system": "mitochondria from fresh rat livers", "assay": "NAD+ levels in isolated liver mitochondria by HPLC-MALDI-MS", "conditions": "for change of mitochondrial NAD+ levels (in words): FK866 10 nM and/or MMS 1:1000, 30 min at 37° C.", "protocol": "Unless otherwise stated, fractionation of cultured cells was performed using a differential centrifugation and sucrose gradient procedure with slight modifications (Schwer et al., 2002). For drug treatment of mitochondria, fresh mitochondria were obtained from livers excised from fed young male rats. Half of the liver homogenate was used for mitochondrial isolation using a commercially available kit as described by manufacturer's instructions, designated Protocol 1 (Pierce Mitochondrial Isolation kit, Rockford, Ill.). The other half of the original homogenate was subjected to a differential centrifugation protocol to isolate mitochondria (Protocol 2). Mitochondria (500 μl) were added to a 48-well plate and treated with methylmethane sulfonate (MMS) at 1:1000 dilution and/or FK866 (10 nM) for 30 min at 37° C. Suspensions were spun down for 1 min at 14,000 rpm at 4° C. and pellets were stored at −80° C. prior to NAD^+ analysis by HPLC-MALDI-MS. Detailed protocols are described in Supplemental Information.\nNAD^+ was determined by as described previously (Sauve and Schramm, 2003), with the following modifications. HEK293 or HT1080 cells were harvested by trypsinization and counted by haemocytometer. NAD^+ was extracted from whole cells or mitochondrial pellets by adding 10% perchloric acid and sonicating for 5 min on ice. The reference standard ^18O-NAD^+ (typically […]) was then added to the sample. After mixing well, samples were centrifuged for 3 min then neutralized with NaOH. NAD^+ in the supernatant (100 μL sample) was separated from other cellular components by HPLC. NAD^+ peaks were collected according to the standards' retention time and dried with a lyophilizor. […] The volume of mitochondrial pellets was calculated by considering the density of the mitochondria pellets to be 1.0 μL/mg. Total cellular NAD^+ concentrations were calculated by dividing the quantity of NAD^+ per cell by the mean cell volume (MCV) as measured by a Coulter counter, which for HT1080 was […] and for HEK293 was […]. […]"}}, "note": "Entries after “also recorded” stand apart in the source; their conditions may differ.", "data": [{"smiles": "c1cc(-c2cnn3cc(-c4ccc(OCCN5CCCCC5)cc4)cnc23)ccn1", "note": "[compound C]", "values": [{"measurement": "AMPK phosphorylation", "setting": "AMPK", "value": "decreased AMPK phosphorylation"}, {"measurement": "ability of SIRT3 to increase GLUT4 protein expression", "setting": "GLUT4", "value": "completely abolished"}]}, {"smiles": "COS(C)(=O)=O", "note": "[MMS, methylmethane sulfonate]", "values": [{"measurement": "total NAD+ concentration after MMS treatment", "setting": "HEK293 cells [1]", "value": "< 100", "unit": "µM"}, {"measurement": "cell death caused by MMS treatment", "setting": "HEK293 cells [2]; 1.2 mM MMS, vector control cells", "value": "death of about half the vector control cells"}, {"measurement": "change of mitochondrial NAD+ levels (in words)", "setting": "[3]", "value": "reduced"}, {"measurement": "reduction of mitochondrial NAD+ levels", "setting": "[3]; MMS 1:1000 dilution, 30 min at 37° C.", "value": "~2", "unit": "fold"}]}, {"smiles": "CC(NC(=O)c1ccccc1/N=C/c1c(O)ccc2ccccc12)c1ccccc1", "note": "(stereo not shown) [sirtinol]", "values": [{"measurement": "effect on Nampt-mediated cell protection/survival against MMS", "setting": "HEK293 cells [2]", "value": "did block the ability of Nampt overexpression to protect cells"}]}, {"smiles": "O=C(/C=C/c1cccnc1)NCCCCC1CCN(C(=O)c2ccccc2)CC1", "note": "[FK866]", "values": [{"measurement": "effect on Nampt-mediated cell protection/survival against MMS", "setting": "HEK293 cells [2]", "value": "prevented cell protection by Nampt overexpression; also recorded: the effect is blocked"}, {"measurement": "change of mitochondrial NAD+ levels (in words)", "setting": "[3]", "value": "even larger decreases in mitochondrial NAD+ levels; also recorded: reduced"}]}, {"smiles": "O=C1NCCc2c(OCCCCN3CCCCC3)cccc21", "note": "[DPQ, 3,4-dihydro-5-[4-(1-piperidinyl)butoxy]-1(2H)-isoquinolinone]", "values": [{"measurement": "extent of MMS-induced cell death", "setting": "HEK293 cells [2]; HEK293 cells, MMS, 30 μM DPQ", "value": "greatly reduced; also recorded: Attenuated"}]}]}
